Assay results taken from article PMC7782793, “Hydroxamic acid-modified peptide microarrays for profiling isozyme-selective interactions and inhibition of histone deacetylases” (Nature Communications, 2021).
Values joined by “and” are separate entries in the source; they are usually repeats but may differ in a detail not shown here. Equal values may be shown once. Marks after values point to notes of the source that are not given here. Non-standard residues stand in square brackets, D forms with d. Residues, ends and D or L forms follow the SMILES beside them. *: point of attachment. Asu = N[C@@H](CCCCCC(=O)O)C(=O)O; NHOH = ON*

What was measured:
[1] = target: T1, HDAC8 (Homo sapiens, UniProt Q9BY41); assay: Recombinant HDAC µSPOT microarray binding assay;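 further: peptide µSPOT slides incubated with varying HDAC enzyme concentrations, imaged signal intensity fitted by four-parameter variable-slope regression, EC50 is enzyme concentration giving half-maximal binding, pH 7.4 HEPES buffer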
T1 construct: HDAC8 (full length, C-terminal His tag, BPS Bioscience, cat. #: 50008); purchased BPS Bioscience 50008
T1 sequence (Q9BY41 1-377): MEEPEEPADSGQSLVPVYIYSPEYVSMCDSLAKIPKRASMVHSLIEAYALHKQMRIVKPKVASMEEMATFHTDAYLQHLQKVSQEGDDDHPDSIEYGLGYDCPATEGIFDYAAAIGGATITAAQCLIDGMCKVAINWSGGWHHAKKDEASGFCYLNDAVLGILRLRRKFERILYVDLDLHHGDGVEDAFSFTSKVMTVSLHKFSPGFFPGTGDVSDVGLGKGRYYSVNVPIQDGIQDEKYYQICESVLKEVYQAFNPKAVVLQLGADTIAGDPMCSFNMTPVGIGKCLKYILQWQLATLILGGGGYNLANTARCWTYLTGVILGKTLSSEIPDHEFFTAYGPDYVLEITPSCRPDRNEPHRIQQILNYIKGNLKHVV
Description: (§1) Experiments were performed twice, data were obtained with Array Analyze software (Active Motif), and data analysis and representation were performed with the GraphPad Prism 7 software. Outliers were curated manually and data were fitted to nonlinear regression [log(agonist) vs. response—variable slope (four parameters)]. […] Non-sigmoidal curves were denoted as not determined (N.D.) The pEC50 values were determined as the concentration of HDAC enzyme required for half-maximal binding signal.

[2] = target: T2, HDAC2 (Homo sapiens, UniProt Q92769); assay: HDAC inhibition assay (fluorogenic, Ac-Leu-Gly-Lys(Ac)-AMC); format: biochemical; details: for HDAC2 dose-response data (relative enzyme activity), Fig. 6 + S. Fig. 10: duplicate columns
T2 construct: HDAC2 (full length, C-terminal His tag, BPS Bioscience, cat. #: 50002); purchased BPS Bioscience 50002
T2 sequence (Q92769 whole entry): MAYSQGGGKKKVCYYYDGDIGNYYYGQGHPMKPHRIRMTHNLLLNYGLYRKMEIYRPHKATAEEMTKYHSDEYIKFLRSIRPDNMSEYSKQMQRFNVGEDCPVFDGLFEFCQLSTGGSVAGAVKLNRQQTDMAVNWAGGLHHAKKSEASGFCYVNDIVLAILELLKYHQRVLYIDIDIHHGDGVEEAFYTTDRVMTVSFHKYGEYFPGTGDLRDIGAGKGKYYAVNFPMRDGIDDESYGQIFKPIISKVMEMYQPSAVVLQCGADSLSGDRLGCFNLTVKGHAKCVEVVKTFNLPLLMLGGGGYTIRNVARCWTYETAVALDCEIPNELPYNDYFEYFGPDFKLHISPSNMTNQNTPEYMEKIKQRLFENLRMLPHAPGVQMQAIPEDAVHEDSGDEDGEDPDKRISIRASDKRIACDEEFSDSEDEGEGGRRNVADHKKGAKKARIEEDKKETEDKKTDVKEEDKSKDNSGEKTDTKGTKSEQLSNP

[3] = target: T2, HDAC2; assay: Recombinant HDAC µSPOT microarray binding assay;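 further: Cellulose-bound peptide spots on slides incubated with six HDAC enzyme concentrations, binding intensity read, four-parameter variable-slope fit, EC50 is enzyme concentration giving half-maximal binding, in HEPES buffer pH 7.4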
Description: as §1

[4] = target: T1, HDAC8; assay: HDAC inhibition assay (fluorogenic, Ac-Leu-Gly-Lys(Tfa)-AMC); format: biochemical; details: for HDAC8 dose-response data (relative enzyme activity, replicate values), Fig. 6 + S. Fig. 10: two replicate columns per inhibitor; for HDAC8 dose-response data (relative enzyme activity), Fig. 6 + S. Fig. 10: duplicate columns
[5] = target: T3, HDAC1 (Homo sapiens, UniProt Q13547); assay: Recombinant HDAC µSPOT microarray binding assay;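 further: slides with spotted peptides incubated with six HDAC concentrations in HEPES buffer pH 7.4, spot intensities fitted by four-parameter logistic, EC50 as enzyme concentration giving half-maximal binding signal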
T3 construct: HDAC1 (full length, C-terminal His tag, C-terminal FLAG tag, BPS Bioscience, cat. #: 50051); FLAG (C); purchased BPS Bioscience 50051
T3 sequence (Q13547 whole entry): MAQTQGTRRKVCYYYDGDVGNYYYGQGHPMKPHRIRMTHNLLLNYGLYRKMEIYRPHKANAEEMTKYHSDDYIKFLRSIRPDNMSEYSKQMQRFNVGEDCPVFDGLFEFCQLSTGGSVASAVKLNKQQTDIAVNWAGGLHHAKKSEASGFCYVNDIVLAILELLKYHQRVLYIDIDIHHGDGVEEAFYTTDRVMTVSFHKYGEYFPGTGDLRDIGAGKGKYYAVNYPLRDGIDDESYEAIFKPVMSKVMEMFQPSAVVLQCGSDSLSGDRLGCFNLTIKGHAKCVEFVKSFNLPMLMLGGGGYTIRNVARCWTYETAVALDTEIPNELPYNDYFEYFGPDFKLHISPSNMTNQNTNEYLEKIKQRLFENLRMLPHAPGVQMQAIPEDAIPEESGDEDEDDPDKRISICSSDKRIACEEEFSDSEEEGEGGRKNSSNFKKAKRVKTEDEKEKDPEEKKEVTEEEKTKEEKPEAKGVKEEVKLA

[6] = target: T3, HDAC1; assay: HDAC inhibition assay (fluorogenic, Ac-Leu-Gly-Lys(Ac)-AMC); format: biochemical; details: for HDAC1 dose-response data (relative enzyme activity), Fig. 6 + S. Fig. 10: duplicate columns
[7] = target: T4, HDAC4 (Homo sapiens, UniProt P56524); assay: HDAC inhibition assay (fluorogenic, Ac-Leu-Gly-Lys(Tfa)-AMC); format: biochemical; details: 2 internal replicates
T4 construct: purchased BPS Bioscience 50004
T4 sequence (P56524 627-1084): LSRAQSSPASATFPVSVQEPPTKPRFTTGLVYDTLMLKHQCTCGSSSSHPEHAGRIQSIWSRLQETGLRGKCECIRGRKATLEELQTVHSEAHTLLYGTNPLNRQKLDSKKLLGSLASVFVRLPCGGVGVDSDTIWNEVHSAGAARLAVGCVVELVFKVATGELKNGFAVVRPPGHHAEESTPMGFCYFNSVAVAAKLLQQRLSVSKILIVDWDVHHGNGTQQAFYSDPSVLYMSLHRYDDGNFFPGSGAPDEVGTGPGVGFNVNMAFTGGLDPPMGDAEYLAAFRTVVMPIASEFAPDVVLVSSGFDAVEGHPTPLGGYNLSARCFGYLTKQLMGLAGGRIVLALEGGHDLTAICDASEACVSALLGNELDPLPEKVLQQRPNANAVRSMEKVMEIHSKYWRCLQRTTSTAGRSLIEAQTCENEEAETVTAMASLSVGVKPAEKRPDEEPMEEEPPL

[8] = target: T5, HDAC6 (Homo sapiens, UniProt Q9UBN7); assay: HDAC inhibition assay (fluorogenic, Ac-Leu-Gly-Lys(Ac)-AMC); format: biochemical; details: HDAC6, replicates
T5 construct: HDAC6 (full length, BPS Bioscience, cat. #: 50056); purchased BPS Bioscience 50056
T5 sequence (Q9UBN7 1-1215): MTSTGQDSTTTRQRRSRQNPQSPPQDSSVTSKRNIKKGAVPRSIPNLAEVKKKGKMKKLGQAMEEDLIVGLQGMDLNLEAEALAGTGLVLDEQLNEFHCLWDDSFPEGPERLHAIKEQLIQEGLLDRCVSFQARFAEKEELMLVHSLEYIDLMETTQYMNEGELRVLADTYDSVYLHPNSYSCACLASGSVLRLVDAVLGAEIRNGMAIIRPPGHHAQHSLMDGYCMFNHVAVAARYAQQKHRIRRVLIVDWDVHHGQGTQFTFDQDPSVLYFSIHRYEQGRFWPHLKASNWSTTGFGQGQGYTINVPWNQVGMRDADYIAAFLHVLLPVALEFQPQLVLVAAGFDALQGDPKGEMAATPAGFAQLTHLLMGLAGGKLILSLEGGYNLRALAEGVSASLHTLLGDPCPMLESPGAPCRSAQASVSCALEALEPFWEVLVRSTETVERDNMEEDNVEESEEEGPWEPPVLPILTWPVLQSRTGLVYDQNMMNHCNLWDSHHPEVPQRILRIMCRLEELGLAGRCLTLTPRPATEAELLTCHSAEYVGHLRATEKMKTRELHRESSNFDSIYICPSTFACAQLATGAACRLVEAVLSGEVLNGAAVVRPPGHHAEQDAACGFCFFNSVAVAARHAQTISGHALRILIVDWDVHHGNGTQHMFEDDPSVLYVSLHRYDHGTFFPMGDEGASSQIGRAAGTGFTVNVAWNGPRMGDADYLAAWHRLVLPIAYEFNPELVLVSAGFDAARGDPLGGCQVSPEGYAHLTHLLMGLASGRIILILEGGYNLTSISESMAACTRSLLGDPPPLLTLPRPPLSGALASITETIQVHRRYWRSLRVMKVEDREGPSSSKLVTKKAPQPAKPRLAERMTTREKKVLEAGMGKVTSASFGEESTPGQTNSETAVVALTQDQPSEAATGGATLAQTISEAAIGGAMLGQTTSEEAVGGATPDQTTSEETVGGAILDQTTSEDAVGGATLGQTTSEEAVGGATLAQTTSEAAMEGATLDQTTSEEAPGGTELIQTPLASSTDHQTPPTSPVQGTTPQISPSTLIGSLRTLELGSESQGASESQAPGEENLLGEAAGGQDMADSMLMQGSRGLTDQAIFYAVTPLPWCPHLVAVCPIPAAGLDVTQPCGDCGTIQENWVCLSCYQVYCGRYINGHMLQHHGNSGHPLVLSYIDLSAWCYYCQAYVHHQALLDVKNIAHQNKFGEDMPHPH

[9] = target: T6, HDAC3/NCoR2 (Homo sapiens, UniProt O15379); assay: Recombinant HDAC µSPOT microarray binding assay;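 further: peptide spots on cellulose slides incubated with rising HDAC enzyme concentrations, imaged together, four-parameter logistic fit, EC50 is enzyme concentration giving half-maximal binding signal, two experiments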
T6 construct: HDAC3/NCoR2 (full length, C-terminal His tag, NCoR2 N-terminal GST tag); purchased BPS Bioscience 50003
T6 sequence (O15379 whole entry): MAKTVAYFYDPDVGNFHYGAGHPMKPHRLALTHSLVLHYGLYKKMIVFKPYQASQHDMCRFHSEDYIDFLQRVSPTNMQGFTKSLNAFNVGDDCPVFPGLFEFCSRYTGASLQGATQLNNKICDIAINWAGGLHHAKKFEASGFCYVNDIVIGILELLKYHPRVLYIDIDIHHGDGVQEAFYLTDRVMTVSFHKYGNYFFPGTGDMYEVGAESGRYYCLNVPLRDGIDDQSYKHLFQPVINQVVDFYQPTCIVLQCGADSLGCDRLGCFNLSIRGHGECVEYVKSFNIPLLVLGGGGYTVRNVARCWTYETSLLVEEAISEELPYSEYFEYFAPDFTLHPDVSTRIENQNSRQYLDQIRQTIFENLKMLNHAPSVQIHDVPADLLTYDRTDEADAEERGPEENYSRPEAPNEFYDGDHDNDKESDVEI
T6 sequence (Q9Y618 389-480 partner limits assumed): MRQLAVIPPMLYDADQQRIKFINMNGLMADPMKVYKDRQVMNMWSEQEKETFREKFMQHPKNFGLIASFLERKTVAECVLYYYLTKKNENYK

[10] = log[inhibitor(M)] -10,5850266520292*, whole line marked with asterisks

## CC(=O)N[C@@H](C)C(=O)N1CCC[C@H]1C(=O)N[C@@H](C)C(=O)N1CCC[C@H]1C(=O)N[C@@H](CCCCN)C(=O)N[C@@H](CCCCCC(=O)NO)C(=O)NCC(=O)N[C@@H](CO)C(=O)N[C@@H](CCCCN)C(=O)N[C@@H](CCCCN)C(=O)N[C@@H](C)C(=O)N[C@H](C(=O)N[C@H](C(=O)N[C@@H](CCCCN)C(=O)N[C@@H](C)C(=O)N[C@@H](CCC(N)=O)C(=O)N[C@@H](Cc1c[nH]c2ccccc12)C(N)=O)[C@@H](C)O)C(C)C [10a] (Ac-APAPK[Asu](NHOH)GSKKAVTKAQW-NH2)
[1]
  EC50: > 25.1 nM
[2]; log[inhibitor(M)] -5
  HDAC2 dose-response data (relative enzyme activity), Fig. 6 + S. Fig. 10: 21.842 and 17.4503
[2]; log[inhibitor(M)] -5.69897
  HDAC2 dose-response data (relative enzyme activity), Fig. 6 + S. Fig. 10: 44.183 and 59.677
[2]; log[inhibitor(M)] -7.79588
  HDAC2 dose-response data (relative enzyme activity), Fig. 6 + S. Fig. 10: 120.227 and 109.311
[2]; [10]
  HDAC2 dose-response data (relative enzyme activity), Fig. 6 + S. Fig. 10: 109,81* and 112,306*
[2]; resynthesized peptide in solution, Cheng-Prusoff, n = 2
  Ki: 239 ± 4 nM
[3]
  EC50: > 25.1 nM
[4]
  Ki: 2240 ± 20 nM
[4]; Inhibitor conc [M] -8.49485 (log)
  HDAC8 dose-response data (relative enzyme activity, replicate values), Fig. 6 + S. Fig. 10: 108.857 and 102.18
[4]; Inhibitor conc [M] -9.19382 (log)
  HDAC8 dose-response data (relative enzyme activity, replicate values), Fig. 6 + S. Fig. 10: 106.186 and 101.221
[4]; Inhibitor conc [M] given as -7.09691 (log)
  HDAC8 dose-response data (relative enzyme activity, replicate values), Fig. 6 + S. Fig. 10: 102.611 and 104.497
[4]; Inhibitor conc [M] given as -7.79588 (log)
  HDAC8 dose-response data (relative enzyme activity, replicate values), Fig. 6 + S. Fig. 10: 103.781 and 99.0423
[4]; Inhibitor conc [M] given as -9.89279 (log)
  HDAC8 dose-response data (relative enzyme activity, replicate values), Fig. 6 + S. Fig. 10: 110.267 and 101.97
[4]; Inhibitor conc [M] -3.60206
  HDAC8 dose-response data (relative enzyme activity), Fig. 6 + S. Fig. 10: 2.527 and 3.969
[4]; Inhibitor conc [M] -4.30103
  HDAC8 dose-response data (relative enzyme activity), Fig. 6 + S. Fig. 10: 9.773 and 11.8218
[4]; Inhibitor conc [M] -5
  HDAC8 dose-response data (relative enzyme activity), Fig. 6 + S. Fig. 10: 29.4256 and 37.404
[4]; Inhibitor conc [M] -5.69897
  HDAC8 dose-response data (relative enzyme activity), Fig. 6 + S. Fig. 10: 62.2051 and 60.7878
[4]; Inhibitor conc [M] -6.39794
  HDAC8 dose-response data (relative enzyme activity), Fig. 6 + S. Fig. 10: 91.1582 and 94.1836
[5]
  EC50: 8.71 nM
[6]
  Ki: 111 ± 2 nM
[6]; log[inhibitor(M)] -4.30103
  HDAC1 dose-response data (relative enzyme activity), Fig. 6 + S. Fig. 10: 5.334 and 4.212
[6]; log[inhibitor(M)] -5.69897
  HDAC1 dose-response data (relative enzyme activity), Fig. 6 + S. Fig. 10: 29.499 and 30.3493
[6]; log[inhibitor(M)] -6.39794
  HDAC1 dose-response data (relative enzyme activity), Fig. 6 + S. Fig. 10: 63.3422 and 57.5642
[6]; log[inhibitor(M)] -7.09691
  HDAC1 dose-response data (relative enzyme activity), Fig. 6 + S. Fig. 10: 92.4396 and 86.4688
[6]; log[inhibitor(M)] -7.79588
  HDAC1 dose-response data (relative enzyme activity), Fig. 6 + S. Fig. 10: 116.265 and 84.5085
[6]; log[inhibitor(M)] -8.49485
  HDAC1 dose-response data (relative enzyme activity), Fig. 6 + S. Fig. 10: 113.205 and 105.123
[6]; log[inhibitor(M)] -9.19382
  HDAC1 dose-response data (relative enzyme activity), Fig. 6 + S. Fig. 10: 116.621 and 108.226
[6]; log[inhibitor(M)] -9.89279
  HDAC1 dose-response data (relative enzyme activity), Fig. 6 + S. Fig. 10: 112.611 and 105.771
[6]; [10]
  HDAC1 dose-response data (relative enzyme activity), Fig. 6 + S. Fig. 10: 102,7345* and 100,1809*
[7]; inhibitor 5 µM
  residual enzymatic activity relative to control wells: 95.93
[7]; inhibitor 5 µM, read-out: residual enzymatic activity relative to control wells
  remaining activity at 5 µM: 100%
[7]; inhibitor 50 µM
  residual enzymatic activity relative to control wells: 77.53
[7]; inhibitor 50 µM, read-out: residual enzymatic activity relative to control wells
  remaining activity at 50 µM: 80.4%
[8]; log[inhibitor(M)] -4.30103
  residual enzymatic activity relative to control wells: 1.4 and 0.93
[8]; log[inhibitor(M)] -5
  residual enzymatic activity relative to control wells: 3.09 and 2.23
[8]; log[inhibitor(M)] -5.69897
  residual enzymatic activity relative to control wells: 13.76 and 8.98
[8]; log[inhibitor(M)] -6.39794
  residual enzymatic activity relative to control wells: 36.89 and 30.05
[8]; log[inhibitor(M)] -7.09691
  residual enzymatic activity relative to control wells: 68.83 and 58.89
[8]; log[inhibitor(M)] -7.79588
  residual enzymatic activity relative to control wells: 90.1 and 83.16
[8]; log[inhibitor(M)] -8.49485
  residual enzymatic activity relative to control wells: 98.1 and 88.82
[8]; log[inhibitor(M)] -9.19382
  residual enzymatic activity relative to control wells: 100.25 and 95.78
[8]; log[inhibitor(M)] -9.89279
  residual enzymatic activity relative to control wells: 102.47 and 98.2
[8]; log[inhibitor(M)] -10.585
  residual enzymatic activity relative to control wells: 99,94* and 98,05*
[9]
  EC50: 3.09 nM
